Reference: the supplement of paper PMC10307832

Legend:
Assay in all cases: relative viability (nuclei count vs DMSO), 5 days (fraction); higher = more cells survive
Selisistat + AZD7762 = compound: C1CC(C2=C(C1)C3=C(N2)C=CC(=C3)Cl)C(=O)N [Selisistat] + NC(=O)Nc1cc(-c2cccc(F)c2)sc1C(=O)N[C@H]1CCCNC1 [AZD7762] (partner 0.2 µM)
How it was run: (§1)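 Dosing by pin tool came one day after lung cancer cell lines were seeded in 1536-well plates, using either one drug or a fixed anchor-drug dose plus five library-drug doses (not always all listed) in √10 steps. After 5 days, nuclei were counted on 4× images. Relative viability is treated-well nuclei count divided by vehicle-well nuclei count, and values are medians of duplicate plates.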

Selisistat + Pemetrexed = compound: C1CC(C2=C(C1)C3=C(N2)C=CC(=C3)Cl)C(=O)N [Selisistat] + Nc1nc2[nH]cc(CCc3ccc(C(=O)N[C@@H](CCC(=O)O)C(=O)O)cc3)c2c(=O)[nH]1 [Pemetrexed] (partner 0.2 µM)
How it was run: as §1

Serdemetan + Phenformin = compound: c1ccc2c(CCNc3ccc(Nc4ccncc4)cc3)c[nH]c2c1 [Serdemetan] + N=C(N)NC(=N)NCCc1ccccc1 [Phenformin] (partner 250 µM)
How it was run: as §1

Selisistat + Tozasertib = compound: C1CC(C2=C(C1)C3=C(N2)C=CC(=C3)Cl)C(=O)N [Selisistat] + Cc1cc(Nc2cc(N3CCN(C)CC3)nc(Sc3ccc(NC(=O)C4CC4)cc3)n2)n[nH]1 [Tozasertib] (partner 0.1 µM)
How it was run: as §1

Cell Line | relative viability (Selisistat + AZD7762; first compound 0.4 µM) | relative viability (Selisistat + AZD7762; first compound 1.265 µM) | relative viability (Selisistat + AZD7762; first compound 4 µM) | relative viability (Selisistat + AZD7762; first compound 12.65 µM) | relative viability (Selisistat + AZD7762; first compound 40 µM) | relative viability (Selisistat + Pemetrexed; first compound 0.4 µM) | relative viability (Selisistat + Pemetrexed; first compound 1.265 µM) | relative viability (Selisistat + Pemetrexed; first compound 4 µM) | relative viability (Selisistat + Pemetrexed; first compound 12.65 µM) | relative viability (Selisistat + Pemetrexed; first compound 40 µM) | relative viability (Serdemetan + Phenformin; first compound 0.04 µM) | relative viability (Serdemetan + Phenformin; first compound 0.1265 µM) | relative viability (Serdemetan + Phenformin; first compound 1.265 µM) | relative viability (Serdemetan + Phenformin; first compound 4 µM) | relative viability (Selisistat + Tozasertib; first compound 0.4 µM) | relative viability (Selisistat + Tozasertib; first compound 1.265 µM) | relative viability (Selisistat + Tozasertib; first compound 4 µM) | relative viability (Selisistat + Tozasertib; first compound 12.65 µM) | relative viability (Selisistat + Tozasertib; first compound 40 µM) | relative viability (Serdemetan + Phenformin; first compound 0.4 µM)
PC-14 | 0.381 | 0.344 | 0.226 | 0.278 | 0.36 | 0.116 | 0.152 | 0.123 | 0.139 | 0.137 | 0.59 | 0.537 | 0.531 | 0.549 | 0.649 | 0.563 | 0.522 | 0.581 | 0.656 | –
RERF-LC-KJ | 0.932 | 0.765 | 0.823 | 0.898 | 0.877 | 0.482 | 0.466 | 0.467 | 0.466 | 0.468 | 0.349 | 0.507 | 0.404 | 0.399 | 0.662 | 0.46 | 0.519 | 0.403 | 0.371 | 0.389
SW 900 | 0.533 | 0.529 | 0.681 | 0.601 | 0.584 | 0.468 | 0.464 | 0.461 | 0.517 | 0.46 | 0.551 | 0.487 | 0.295 | 0.365 | 0.677 | 0.563 | 0.589 | 0.567 | 0.559 | 0.674
